According to publication PMC6122928 (The Journal of General Physiology, 2018):

Legend:
[1] = target: T1, xTMEM16A (Xenopus laevis, UniProt B5SVV6); test: TEVC in axolotl oocytes, current evoked by uncaging IP3; assay type: cell-based
T1 sequence (B5SVV6 1-979): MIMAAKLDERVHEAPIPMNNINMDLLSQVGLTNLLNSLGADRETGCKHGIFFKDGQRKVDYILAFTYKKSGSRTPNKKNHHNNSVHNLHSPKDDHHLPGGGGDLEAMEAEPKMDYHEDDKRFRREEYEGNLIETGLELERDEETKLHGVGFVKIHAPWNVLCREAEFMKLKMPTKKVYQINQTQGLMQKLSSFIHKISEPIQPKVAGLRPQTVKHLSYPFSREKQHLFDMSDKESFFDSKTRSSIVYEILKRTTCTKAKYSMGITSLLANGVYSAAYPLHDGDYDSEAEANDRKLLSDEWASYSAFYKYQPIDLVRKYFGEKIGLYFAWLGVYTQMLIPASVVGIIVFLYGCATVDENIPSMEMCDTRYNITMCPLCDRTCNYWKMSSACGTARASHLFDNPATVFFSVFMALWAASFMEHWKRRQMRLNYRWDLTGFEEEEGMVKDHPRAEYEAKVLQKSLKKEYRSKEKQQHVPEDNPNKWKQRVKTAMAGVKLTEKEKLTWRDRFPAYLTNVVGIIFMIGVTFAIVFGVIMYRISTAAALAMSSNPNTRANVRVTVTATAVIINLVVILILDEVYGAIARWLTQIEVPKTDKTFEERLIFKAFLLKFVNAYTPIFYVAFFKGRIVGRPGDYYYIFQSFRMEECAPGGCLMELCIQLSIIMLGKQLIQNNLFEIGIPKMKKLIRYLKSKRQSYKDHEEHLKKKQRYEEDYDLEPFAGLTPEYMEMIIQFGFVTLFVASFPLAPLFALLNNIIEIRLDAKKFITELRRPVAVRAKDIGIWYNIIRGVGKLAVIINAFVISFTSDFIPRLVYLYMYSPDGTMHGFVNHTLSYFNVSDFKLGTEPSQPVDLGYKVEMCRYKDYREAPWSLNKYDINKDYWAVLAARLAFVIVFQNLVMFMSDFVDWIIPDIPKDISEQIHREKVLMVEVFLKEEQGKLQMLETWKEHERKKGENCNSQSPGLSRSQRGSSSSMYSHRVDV

[2] = target: T1, xTMEM16A; test: as above; assay type: cell-based; conditions: 7.5 µM; otherwise same; printed as almost 50%

## COc1ccccc1C=NNC(=O)COc1ccc(Cl)cc1C [Ani9, 2-(4-chloro-2-methylphenoxy)-N-[(2-methoxyphenyl)methylideneamino]-acetamide]
[1]; read-out: % inhibition at 1 μM
  inhibition at 1 µM: ~80%

## CC(C)(C)C1CCc2c(sc(NC(=O)c3ccco3)c2C(=O)O)C1 (stereo not shown) [CaCCinh-A01, 6-(1,1-dimethylethyl)-2-[(2-furanylcarbonyl)amino]-4,5,6,7-tetrahydrobenzo[b]thiophene-3-carboxylic acid]
[2]
  % inhibition: whereas T16Ainh-A01 and CaCCinh-A01 were much less effective

## O=S(=O)(O)c1cc(N=C=S)ccc1/C=C/c1ccc(N=C=S)cc1S(=O)(=O)O [DIDS]
[1]; read-out: % inhibition at 7.5 μM
  inhibition at 7.5 µM: ~50%

## COc1cc(Nc2ccc([N+](=O)[O-])cc2C(=O)O)cc2ccccc12 [MONNA, N-((4-methoxy)-2-naphthyl)-5-nitroanthranilic acid]
[1]; read-out: % inhibition at 10 μM
  inhibition at 10 µM: 72 ± 3%
